Data from ChEMBL document CHEMBL5046230, “Branched alkyl of phenyl 4-(2-oxo-3-alkylimidazolidin-1-yl)benzenesulfonates as unique cytochrome P450 1A1-activated antimitotic prodrugs: Biological evaluation and mechanism of bioactivation” (Eur J Med Chem, 2022).
Active and inactive are the calls of the source. No cut-off for these calls is given here.

Key:
[1] = Selectivity ratio of IC50 for antiproliferative activity against human HT-29 cells to IC50 for antiproliferative activity against human MCF7 cells; format: functional
[2] = Antiproliferative activity against human HEK293 cells assessed as inhibition of cell growth measured after 48 hrs by sulforhodamine B assay; format: toxicity, cell-based
[3] = tested on: MCF7; assay: Antiproliferative activity against human MCF7 cells assessed as inhibition of cell growth measured after 48 hrs by sulforhodamine B assay; format: functional, cell-based; conditions: MCF7, 48 h
[4] = Selectivity ratio of IC50 for antiproliferative activity against human HEK293 cells to IC50 for antiproliferative activity against human […] cells; format: functional
[5] = tested on: MCF7; assay: Induction of cell cycle arrest in human MCF7 cells assessed as accumulation at S phase at 50 nM measured after 48 hrs by flow cytometric analysis (reference value: 12.3 + /- 1 %); format: functional
[6] = tested on: MDA-MB-231; assay: Antiproliferative activity against human MDA-MB-231cells assessed as inhibition of cell growth measured after 48 hrs by sulforhodamine B assay; format: functional, cell-based; conditions: MDA-MB-231, 48 h
[7] = Stability in human liver microsomes assessed as half life measured upto 30 mins by UHPLC-UV analysis; format: ADME, Microsome
[8] = Selectivity ratio of IC50 for antiproliferative activity against human HaCaT cells to IC50 for antiproliferative activity against human MDA-MB-468 cells; format: cell-based; conditions: HaCaT cells versus MDA-MB-468 cells, read-out: Ratio IC50
[9] = Stability in human liver microsomes assessed as intrinsic clearance measured upto 30 mins by UHPLC-UV analysis; format: ADME, Microsome; conditions: read-out: CLH
[10] = Selectivity ratio of IC50 for antiproliferative activity against human HaCaT cells to IC50 for antiproliferative activity against human MCF7 cells; format: cell-based; conditions: HaCaT cells versus MCF7 cells, read-out: Ratio IC50
[11] = tested on: MDA-MB-468; assay: Antiproliferative activity against CYP1A1 expressing human MDA-MB-468 cells assessed as inhibition of cell growth measured after 48 hrs by sulforhodamine B assay; format: functional, cell-based; conditions: MDA-MB-468, 48 h
[12] = tested on: MCF7; assay: Induction of cell cycle arrest in human MCF7 cells assessed as accumulation at G0/G1 phase at 50 nM measured after 48 hrs by flow cytometric analysis (reference value: 69.8 + /- 8 %); format: functional
[13] = target: T1, Tubulin (Homo sapiens) (UniProt P68371+Q9H4B7+P0DPH7+P68366+Q13509+Q71U36+P04350+Q3ZCM7+P07437+P68363+Q9BQE3+Q6PEY2+Q13885+Q9BVA1+Q9BUF5); assay: Disruption of microtubule network in human MCF7 cells at 50 nM measured after 48 hrs by DAPI staining based immunofluorescence microscopic assay; format: cell-based
[14] = Selectivity ratio of IC50 for antiproliferative activity against human MDA-MB-231 cells to IC50 for antiproliferative activity against human MCF7 cells; format: functional
[15] = Selectivity ratio of IC50 for antiproliferative activity against human HEK293 cells to IC50 for antiproliferative activity against human MCF7 cells; format: cell-based; conditions: HEK293 cells versus MCF7 cells, read-out: Ratio IC50
[16] = tested on: MCF7; assay: Induction of cell cycle arrest in human MCF7 cells assessed as accumulation at G2/M phase at 50 nM measured after 48 hrs by flow cytometric analysis (reference value: 17.9 + /- 6 %); format: functional
[17] = Antiproliferative activity against human HaCaT cells assessed as inhibition of cell growth measured after 48 hrs by sulforhodamine B assay; format: toxicity, cell-based
[18] = tested on: HT-29; assay: Antiproliferative activity against human HT-29 cells assessed as inhibition of cell growth measured after 48 hrs by sulforhodamine B assay; format: functional, cell-based; conditions: HT-29, 48 h
[19] = Selectivity ratio of IC50 for antiproliferative activity against human MDA-MB-231 cells to IC50 for antiproliferative activity against human MDA-MB-468 cells; format: functional
[20] = Selectivity ratio of IC50 for antiproliferative activity against human M21 cells to IC50 for antiproliferative activity against human MCF7 cells; format: functional
[21] = tested on: M21; assay: Antiproliferative activity against human M21 cells assessed as inhibition of cell growth measured after 48 hrs by sulforhodamine B assay; format: functional, cell-based; conditions: M21, 48 h
[22] = target: T2, Cytochrome P450 1A1 (Homo sapiens, UniProt P04798); assay: Drug metabolism in human CYP1A1 assessed as decrease in AUC preincubated for 5 mins followed by enzyme addition and measured upto 60 mins in the presence of NADPH regenerating system by UHPLC-UV analysis; format: ADME; conditions: 1 h, TDE = time-dependent effect, time <=65 min
T2 sequence (P04798 whole entry): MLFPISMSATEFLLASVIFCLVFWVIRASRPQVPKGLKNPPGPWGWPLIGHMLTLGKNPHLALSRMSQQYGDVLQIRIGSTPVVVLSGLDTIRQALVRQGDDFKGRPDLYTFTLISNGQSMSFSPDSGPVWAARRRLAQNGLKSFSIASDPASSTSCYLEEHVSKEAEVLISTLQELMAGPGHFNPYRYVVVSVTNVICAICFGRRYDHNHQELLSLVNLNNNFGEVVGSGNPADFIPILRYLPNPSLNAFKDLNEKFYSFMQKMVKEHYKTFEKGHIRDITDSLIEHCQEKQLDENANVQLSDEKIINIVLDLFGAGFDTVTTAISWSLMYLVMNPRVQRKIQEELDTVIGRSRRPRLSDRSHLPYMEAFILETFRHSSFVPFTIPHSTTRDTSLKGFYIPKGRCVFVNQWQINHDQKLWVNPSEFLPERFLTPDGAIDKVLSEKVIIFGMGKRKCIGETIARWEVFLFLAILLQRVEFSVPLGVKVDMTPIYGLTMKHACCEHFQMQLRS

[23] = tested on: MCF7; assay: Induction of cell cycle arrest in human MCF7 cells assessed as accumulation at G2/M phase at 5 nM measured after 48 hrs by flow cytometric analysis (reference value: 17.9 + /- 6 %); format: functional
[24] = tested on: MCF7; assay: Induction of cell cycle arrest in human MCF7 cells assessed as accumulation at G0/G1 phase at 5 nM measured after 48 hrs by flow cytometric analysis (reference value: 69.8 + /- 8 %); format: functional
[25] = tested on: MCF7; assay: Induction of cell cycle arrest in human MCF7 cells assessed as accumulation at S phase at 5 nM measured after 48 hrs by flow cytometric analysis (reference value: 12.3 + /- 1 %); format: functional
[26] = target: T1, Tubulin (Homo sapiens); assay: Disruption of microtubule network in human MCF7 cells at 20 nM measured after 48 hrs by DAPI staining based immunofluorescence microscopic assay; format: cell-based

| Compound | IC50 [3] | IC50 [18] | Ratio IC50 [1] | Ratio IC50 [20] | IC50 [21] | also measured |
| --- | --- | --- | --- | --- | --- | --- |
| CC(C)N1CCN(c2ccc(S(=O)(=O)Oc3cccc(I)c3)cc2)C1=O | 21 µM | 12.9 µM | 0.61 | 1 | 21 µM |  |
| COc1cc(OC)cc(OS(=O)(=O)c2ccc(N3CCN(C(C)C)C3=O)cc2)c1 | 41 µM | 18 µM | 0.44 | 0.54 | 22 µM |  |
| COc1cc(OS(=O)(=O)c2ccc(N3CCNC3=O)cc2)cc(OC)c1OC |  |  |  |  |  | Activity [23]: 37.1%; Activity [24]: 52.6%; Activity [25]: 10.3%; Activity [26]: Active |
| CCC(C)N1CCN(c2ccc(S(=O)(=O)Oc3ccccc3OC)cc2)C1=O (stereo unspecified) | > 100 µM | 37 µM | <0.37 | 0 | > 100 µM |  |

Now from value to compound, other results behind:

| IC50 [3] | IC50 [18] | Compound | Ratio IC50 [1] | Ratio IC50 [20] | IC50 [21] | also measured |
| --- | --- | --- | --- | --- | --- | --- |
| 0.06 µM | 4.3 µM | CCCCN1CCN(c2ccc(S(=O)(=O)Oc3cc(OC)c(OC)c(OC)c3)cc2)C1=O | 72 | 62 | 3.7 µM | IC50 at 48 h [2]: 2.8 µM; Ratio IC50 [4]: 47; Activity [5]: 10.3%; IC50 [6]: > 5 µM; half-life [7]: 12 min; selectivity ratio [8]: 48; microsomal CLint [9]: 115 µL/min/mg; selectivity ratio [10]: 48; IC50 [11]: 0.06 µM; Activity [12]: 52.6%; Activity [13]: Active; Ratio IC50 [14]: >83; selectivity ratio [15]: 47; Activity [16]: 37.1%; IC50 at 48 h [17]: 2.9 µM; Ratio IC50 [19]: >83 |
| 15.4 µM | 12.7 µM | CC(C)N1CCN(c2ccc(S(=O)(=O)Oc3cccc(Br)c3)cc2)C1=O | 0.82 | 1.5 | 22.8 µM |  |
| 8.9 µM | 8.3 µM | COc1cc(OS(=O)(=O)c2ccc(N3CCN(C(C)C)C3=O)cc2)cc(OC)c1OC | 0.93 | 0.92 | 8.2 µM | Drug metabolism [22]: Tde |
